Assay results from patent publication US20120258980A1, “Antibacterial Agent for Drug-Resistant Bacteria, Method for Screening for Same, and Use of Same” (priority 2009, published 2012).
Converted amounts (≈) assume the structure as drawn. Read-outs that look alike come from different tables or passages of the source.

How the values were obtained:
[1] = test system: MRSA, CA-MRSA and MSSA of Staphylococcus aureus; test: MIC measurement, Test Example 4 (MRSA, CA-MRSA and MSSA strains); assay type: cell-based; settings: Staphylococcus aureus
Procedure: Each of the bacterial strains listed in Table 1-1 was shake-cultured at 37° C. overnight in 4 mL of a medium (Tryptical Soy Broth: TSB, product of Becton Dickinson and Company). FDA209P was used as a control.
After completion of culturing, the resultant culture was suspended in a cation-adjusted Mueller Hinton Broth (CAMHB, product of Becton Dickinson and Company). Then, the obtained bacterial culture was adjusted in absorbance with the CAMHB so that the absorbance at 578 nm of the bacterial culture was adjusted to 0.3 measured by an absorption spectrometer. In addition, the resultant bacterial culture was 500-fold diluted with the CAMHB.
Each of the 500-fold diluted, pre-cultured bacterial cultures was added at 50 μL/well to the CAMHB containing the quinolones and the nybomycins at various concentrations (50 μL/well), followed by statically culturing at 37° C. overnight.
After completion of culturing, the growth of the bacteria was visually determined based on turbidity to measure MIC in each bacterial strain.
Glycopeptides, imipenem, quinolones and nybomycins were studied for antibacterial activity against the bacterial strains listed in Table 2-1; i.e., MRSA, CA-MRSA and MSSA of Staphylococcus aureus.

[2] = test system: VRSA clinical isolates; settings: based on NARSA, cited from earlier work
[3] = ATCC 29213 / MRSA / MSSA, ATCC 29213, MSSA
[4] = FDA209P / MRSA / MSSA, FDA209P, MSSA
[5] = MRSA / MSSA / NCTC 8325, NCTC 8325, MSSA
[6] = MRSA / MSSA / USA300, USA300 FPR3757, CA-MRSA

Compound	MIC [1, 3]	MIC ([1]; COL, MRSA)	MIC [1, 4]	MIC ([1]; ISA12-1, MRSA)	MIC ([1]; ISA12-2, MRSA)	MIC ([1]; ISA35-1, MRSA)	MIC ([1]; ISA37-1, MSSA)	MIC ([1]; ISA49-1, MSSA)	MIC ([1]; ISA51-1, MSSA)	MIC ([1]; ISA56-3, MRSA)	MIC ([1]; ISA58-1, MRSA)	MIC ([1]; ISA62-1, MRSA)	MIC ([1]; ISA73-1, MSSA)	MIC ([1]; KBSA32, MRSA)	MIC ([1]; KBSA34, MRSA)	MIC ([1]; KBSA72, MRSA)	MIC ([1]; KBSA96, MRSA)	MIC ([1]; KBSA171, MRSA)	MIC ([1]; KSA24, MRSA)	MIC ([1]; KSA31, MRSA)	further results
CC1COc2c(N3CCN(C)CC3)c(F)cc3c(=O)c(C(=O)O)cn1c23 (stereo not drawn) [OFLX, ofloxacin]	0.25 µg/mL (≈ 0.692 µM)	0.5 µg/mL (≈ 1.38 µM)	0.125 µg/mL (≈ 0.346 µM)	0.5 µg/mL (≈ 1.38 µM)	0.5 µg/mL (≈ 1.38 µM)	2 µg/mL (≈ 5.53 µM)	0.25 µg/mL (≈ 0.692 µM)	0.25 µg/mL (≈ 0.692 µM)	0.5 µg/mL (≈ 1.38 µM)	0.5 µg/mL (≈ 1.38 µM)	0.5 µg/mL (≈ 1.38 µM)	0.25 µg/mL (≈ 0.692 µM)	0.25 µg/mL (≈ 0.692 µM)	0.25 µg/mL (≈ 0.692 µM)	0.5 µg/mL (≈ 1.38 µM)	> 128 µg/mL	16 µg/mL (≈ 44.3 µM)	32 µg/mL (≈ 88.6 µM)	32 µg/mL (≈ 88.6 µM)	8 µg/mL (≈ 22.1 µM)	MIC ([1]; KSA36, MRSA): > 128 µg/mL; MIC [1, 5]: 0.25 µg/mL (≈ 0.692 µM); MIC [1, 6]: 16 µg/mL (≈ 44.3 µM); MIC ([1]; MW2, CA-MRSA): 0.5 µg/mL (≈ 1.38 µM); MIC ([1]; N315, MRSA): 0.25 µg/mL (≈ 0.692 µM)
Cc1onc(-c2ccccc2)c1C(=O)N[C@@H]1C(=O)N2[C@@H]1SC(C)(C)[C@@H]2C(=O)O [OXA, oxacillin]	0.25 µg/mL (≈ 0.623 µM)	> 16 µg/mL	≤ 0.063 µg/mL	4 µg/mL (≈ 9.96 µM)	4 µg/mL (≈ 9.96 µM)	4 µg/mL (≈ 9.96 µM)	2 µg/mL (≈ 4.98 µM)	1 µg/mL (≈ 2.49 µM)	1 µg/mL (≈ 2.49 µM)	8 µg/mL (≈ 19.9 µM)	4 µg/mL (≈ 9.96 µM)	8 µg/mL (≈ 19.9 µM)	1 µg/mL (≈ 2.49 µM)	8 µg/mL (≈ 19.9 µM)	16 µg/mL (≈ 39.9 µM)	128 µg/mL (≈ 319 µM)	128 µg/mL (≈ 319 µM)	> 128 µg/mL	128 µg/mL (≈ 319 µM)	128 µg/mL (≈ 319 µM)	MIC ([1]; KSA36, MRSA): > 128 µg/mL; MIC [1, 5]: 1 µg/mL (≈ 2.49 µM); MIC [1, 6]: 16 µg/mL (≈ 39.9 µM); MIC ([1]; MW2, CA-MRSA): 8 µg/mL (≈ 19.9 µM); MIC ([1]; N315, MRSA): 32 µg/mL (≈ 79.7 µM); MIC ([2]; VRS1, VRSA, Michigan): >16 µg/mL; MIC ([2]; VRS2, VRSA, Pennsylvania): >16 µg/mL; MIC ([2]; VRS3, VRSA, New York): >16 µg/mL; MIC ([2]; VRS4, VRSA, New York): >16 µg/mL; MIC ([2]; VRS5, VRSA, Michigan): >16 µg/mL; MIC ([2]; VRS6, VRSA, Michigan): >16 µg/mL; MIC ([2]; VRS7, VRSA, Michigan): 8 µg/mL (≈ 19.9 µM)
